Test results from ChEMBL document CHEMBL5226347, “Discovery of Chromane-6-Sulfonamide Derivative as a Potent, Selective, and Orally Available Novel Retinoic Acid Receptor-Related Orphan Receptor γt Inverse Agonist” (J Med Chem, 2021).
Converted amounts (≈) assume the structure as drawn. The source made the active and inactive calls. The calls are words filed in the database; no cut-off is given here.

Legend:
Mus musculus [1] = test: Antiinflammatory activity against imiquimod-induced Balb/c mouse skin inflammation model assessed as reduction in scaling at 5 to 20 mg/kg, po BID for 13 days; type: functional, organism-based; settings: dose 5-20 mg/kg, time 13.0 day
Mus musculus [2] = test: Antiinflammatory activity against imiquimod-induced Balb/c mouse skin inflammation model assessed as inhibition of IL-17A level at 20 mg/kg, po measured for 13 days; type: functional; parameters: scale not given: the % may be the effect or the level left; settings: time 13 day
Mus musculus [3] = test: Antiinflammatory activity against imiquimod-induced Balb/c mouse skin inflammation model assessed as reduction in skin thickening at 5 to 20 mg/kg, po BID for 13 days; type: functional, organism-based; settings: dose 5-20 mg/kg, time 13.0 day
[4] = Solubility of compound in aqueous buffer at pH 7.4; type: physicochemical
[5] = Oral bioavailability in mouse at 1 mg/kg measured at 5 to 1440 mins by LC-MS analysis; type: ADME, organism-based; settings: in vivo, time 5-1440 min
[6] = Toxicity in Balb/c mouse assessed as inflammatory cell infiltration at 10 to 20 mg/kg, po administered for 13 days; type: organism-based; settings: in vivo, 312 h, dose 10-20 mg/kg, time 13 day
[7] = Half life in mouse at 1 mg/kg, po measured at 5 to 1440 mins by LC-MS analysis; type: ADME, organism-based; settings: in vivo, time 5-1440 min
[8] = AUC (0 to t) in mouse at 1 mg/kg, po measured at 5 to 1440 mins by LC-MS analysis; type: ADME, organism-based; parameters: time 5-1440 min, dose 1 mg/kg, route po; settings: in vivo
Mus musculus [9] = test: Antiinflammatory activity against imiquimod-induced Balb/c mouse skin inflammation model assessed as decrease in erythema at 5 to 20 mg/kg, po BID for 13 days; type: functional, organism-based; settings: dose 5-20 mg/kg, time 13.0 day
[10] = AUC (0 to t) in mouse at 0.3 mg/kg, iv measured at 2 to 1440 mins by LC-MS analysis; type: ADME, organism-based; parameters: time lower 2 min, dose 0.3 mg/kg, time upper 1440 min, route iv; settings: in vivo
[11] = AUC (0 to infinity) in mouse at 1 mg/kg, po measured at 5 to 1440 mins by LC-MS analysis; type: ADME, organism-based; parameters: dose 1 mg/kg, time 5-1440 min, route po; settings: in vivo
[12] = Toxicity in Balb/c mouse assessed as body weight loss at 5 to 20 mg/kg, po administered for 12 days; type: organism-based; settings: in vivo, 288 h, dose 5-20 mg/kg, time 12 day
[13] = AUC (0 to infinity) in mouse at 0.3 mg/kg, iv measured at 2 to 1440 mins by LC-MS analysis; type: ADME, organism-based; parameters: dose 0.3 mg/kg, time 2-1440 min, route iv; settings: in vivo
[14] = Tmax in mouse at 0.3 mg/kg, iv measured at 2 to 1440 mins by LC-MS analysis; type: ADME, organism-based; settings: in vivo, time 2-1440 min
Mus musculus [15] = test: Antiinflammatory activity against imiquimod-induced Balb/c mouse skin inflammation model assessed as inhibition of IL-6 level at 20 mg/kg, po measured for 13 days; type: functional; parameters: scale not given: the % may be the effect or the level left; settings: time 13 day
[16] = Half life in mouse at 0.3 mg/kg, iv measured at 2 to 1440 mins by LC-MS analysis; type: ADME, organism-based; settings: in vivo, time 2-1440 min
[17] = Metabolic stability in human liver microsomes assessed as half life incubated for 5 to 30 mins by HPLC-MS/MS analysis; type: ADME, Microsome; settings: microsomes, time 5-30 min
[18] = Cmax in mouse at 1 mg/kg, po measured at 5 to 1440 mins by LC-MS analysis; type: ADME, organism-based; parameters: time upper 1440 min, time lower 5 min, dose 1 mg/kg, route po; settings: in vivo
[19] = Clearance in mouse at 0.3 mg/kg, iv measured at 2 to 1440 mins by LC-MS analysis; type: ADME, organism-based; settings: in vivo, time 2-1440 min
[20] = Cmax in mouse at 0.3 mg/kg, iv measured at 2 to 1440 mins by LC-MS analysis; type: ADME, organism-based; parameters: time 2-1440 min, dose 0.3 mg/kg, route iv; settings: in vivo
[21] = biological target: T1, Nuclear receptor ROR-beta (Homo sapiens, UniProt Q92753); test: Inhibition of human GAL4-fused RORbeta LBD transfected in HEK293T cell measured for 16 to 20 hrs by dual-glo luciferase assay; type: cell-based
T1 sequence (Q92753 whole entry): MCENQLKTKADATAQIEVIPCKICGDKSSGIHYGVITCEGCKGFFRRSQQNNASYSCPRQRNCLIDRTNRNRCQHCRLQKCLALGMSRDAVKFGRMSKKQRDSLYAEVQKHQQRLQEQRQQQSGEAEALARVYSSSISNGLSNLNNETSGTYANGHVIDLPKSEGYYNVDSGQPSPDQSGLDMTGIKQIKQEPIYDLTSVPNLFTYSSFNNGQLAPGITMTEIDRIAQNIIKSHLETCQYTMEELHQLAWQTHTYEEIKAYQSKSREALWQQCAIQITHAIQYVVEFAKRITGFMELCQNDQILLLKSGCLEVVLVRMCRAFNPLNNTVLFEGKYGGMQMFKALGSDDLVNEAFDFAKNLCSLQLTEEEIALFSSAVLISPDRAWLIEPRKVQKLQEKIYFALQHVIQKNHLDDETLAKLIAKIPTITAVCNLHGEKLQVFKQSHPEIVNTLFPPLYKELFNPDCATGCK

Mus musculus [22] = test: Antiinflammatory activity against imiquimod-induced Balb/c mouse skin inflammation model assessed as decrease in skin thickening at 10 to 20 mg/kg, po measured for 13 days; type: functional, organism-based; settings: dose 10-20 mg/kg, time 13.0 day
[23] = Lipophilicity, log D of the compound at pH 7.4; type: physicochemical; settings: buffer
[24] = Volume of distribution at steady state in mouse at 0.3 mg/kg, iv measured at 2 to 1440 mins by LC-MS analysis; type: ADME, organism-based; settings: in vivo, time 2-1440 min, read-out: Vdss
Mus musculus [25] = test: Antiinflammatory activity against imiquimod-induced Balb/c mouse skin inflammation model assessed as reduction in total psoriasis area at 20 mg/kg, po BID for 13 days; type: functional, organism-based; settings: time 13.0 day
Mus musculus [26] = test: Antiinflammatory activity against imiquimod-induced Balb/c mouse skin inflammation model assessed as reduction in severity index score at 20 mg/kg, po BID for 13 days; type: functional; parameters: scale not given: the % may be the effect or the level left; settings: time 13 day
[27] = Metabolic stability in human liver microsomes assessed as parent compound remaining measured at 60 mins by HPLC-MS/MS analysis; type: ADME, Microsome; settings: 1 h
[28] = Tmax in mouse at 1 mg/kg, po measured at 5 to 1440 mins by LC-MS analysis; type: ADME, organism-based; settings: in vivo, time 5-1440 min
[29] = Metabolic stability in human liver assessed as intrinsic clearance incubated for 5 to 30 mins by HPLC-MS/MS analysis; type: ADME, tissue-based; settings: liver (preparation not stated), time 5-30 min, read-out: CLH

Question: Which Activity (Mus musculus [1]) does the source give for `CCc1ccc(N(C2CCC2)S(=O)(=O)c2ccc3c(c2)C(O)CC(C2CCOCC2)O3)cc1` (centres undefined) here?
Answer: Active

Question: What about the Activity (Mus musculus [2]) of the same molecule?
Answer: 37.6%

Question: And the Activity (Mus musculus [3])?
Answer: Active

Question: What about the solubility [4] of the same molecule?
Answer: 8.68 µg/mL (≈ 18.4 µM)

Question: And the bioavailability [5]?
Answer: 55%

Question: What about the Activity [6] of the same molecule?
Answer: Non-Toxic

Question: And the half-life [7]?
Answer: 1.32 h

Question: And the AUC(0-t) [8]?
Answer: 0.285 µg·h/mL

Question: And the Activity (Mus musculus [9])?
Answer: Active

Question: What about the AUC(0-t) [10] of the same molecule?
Answer: 0.153 µg·h/mL

Question: What about the AUC(0-inf) [11] of the same molecule?
Answer: 0.298 µg·h/mL

Question: And the Activity [12]?
Answer: Non-Toxic

Question: And the AUC(0-inf) [13]?
Answer: 0.163 µg·h/mL

Question: What about the Tmax [14] of the same molecule?
Answer: 1.52 h

Question: What about the Activity (Mus musculus [15]) of the same molecule?
Answer: 71.9%

Question: And the half-life [16]?
Answer: 0.87 h

Question: What about the t1/2 [17] of the same molecule?
Answer: 0.817 h

Question: And the Cmax [18]?
Answer: 0.094 µg/mL

Question: And the clearance [19]?
Answer: 2.32 L/h/kg

Question: And the Cmax [20]?
Answer: 0.083 µg/mL

Question: What about the IC50 [21] of the same molecule?
Answer: > 10 µM

Question: And the Activity (Mus musculus [22])?
Answer: inactive

Question: And the logD [23]?
Answer: 3.69

Question: And the Vd [24]?
Answer: 1.54 L/kg

Question: And the Activity (Mus musculus [25])?
Answer: Active

Question: What about the Activity (Mus musculus [26]) of the same molecule?
Answer: 70.5%

Question: And the Stability [27]?
Answer: 45.1%

Question: And the Tmax [28]?
Answer: 2.32 h

Question: What about the CLint scaled [29] of the same molecule?
Answer: 1.63 L/h/kg
